Data reported in BindingDB's records for doi:10.7270/Q2NC5ZRN (Burnham Center For Chemical Genomics, 2012).

Molecular target: DNA (cytosine-5)-methyltransferase 1 (Homo sapiens, UniProt P26358)
Assay: DNMT1 methyltransferase inhibitors, confirmation, biochemical, fluorescent molecular beacon (AID 602386)

Chain of DNA (cytosine-5)-methyltransferase 1 (P26358 whole entry): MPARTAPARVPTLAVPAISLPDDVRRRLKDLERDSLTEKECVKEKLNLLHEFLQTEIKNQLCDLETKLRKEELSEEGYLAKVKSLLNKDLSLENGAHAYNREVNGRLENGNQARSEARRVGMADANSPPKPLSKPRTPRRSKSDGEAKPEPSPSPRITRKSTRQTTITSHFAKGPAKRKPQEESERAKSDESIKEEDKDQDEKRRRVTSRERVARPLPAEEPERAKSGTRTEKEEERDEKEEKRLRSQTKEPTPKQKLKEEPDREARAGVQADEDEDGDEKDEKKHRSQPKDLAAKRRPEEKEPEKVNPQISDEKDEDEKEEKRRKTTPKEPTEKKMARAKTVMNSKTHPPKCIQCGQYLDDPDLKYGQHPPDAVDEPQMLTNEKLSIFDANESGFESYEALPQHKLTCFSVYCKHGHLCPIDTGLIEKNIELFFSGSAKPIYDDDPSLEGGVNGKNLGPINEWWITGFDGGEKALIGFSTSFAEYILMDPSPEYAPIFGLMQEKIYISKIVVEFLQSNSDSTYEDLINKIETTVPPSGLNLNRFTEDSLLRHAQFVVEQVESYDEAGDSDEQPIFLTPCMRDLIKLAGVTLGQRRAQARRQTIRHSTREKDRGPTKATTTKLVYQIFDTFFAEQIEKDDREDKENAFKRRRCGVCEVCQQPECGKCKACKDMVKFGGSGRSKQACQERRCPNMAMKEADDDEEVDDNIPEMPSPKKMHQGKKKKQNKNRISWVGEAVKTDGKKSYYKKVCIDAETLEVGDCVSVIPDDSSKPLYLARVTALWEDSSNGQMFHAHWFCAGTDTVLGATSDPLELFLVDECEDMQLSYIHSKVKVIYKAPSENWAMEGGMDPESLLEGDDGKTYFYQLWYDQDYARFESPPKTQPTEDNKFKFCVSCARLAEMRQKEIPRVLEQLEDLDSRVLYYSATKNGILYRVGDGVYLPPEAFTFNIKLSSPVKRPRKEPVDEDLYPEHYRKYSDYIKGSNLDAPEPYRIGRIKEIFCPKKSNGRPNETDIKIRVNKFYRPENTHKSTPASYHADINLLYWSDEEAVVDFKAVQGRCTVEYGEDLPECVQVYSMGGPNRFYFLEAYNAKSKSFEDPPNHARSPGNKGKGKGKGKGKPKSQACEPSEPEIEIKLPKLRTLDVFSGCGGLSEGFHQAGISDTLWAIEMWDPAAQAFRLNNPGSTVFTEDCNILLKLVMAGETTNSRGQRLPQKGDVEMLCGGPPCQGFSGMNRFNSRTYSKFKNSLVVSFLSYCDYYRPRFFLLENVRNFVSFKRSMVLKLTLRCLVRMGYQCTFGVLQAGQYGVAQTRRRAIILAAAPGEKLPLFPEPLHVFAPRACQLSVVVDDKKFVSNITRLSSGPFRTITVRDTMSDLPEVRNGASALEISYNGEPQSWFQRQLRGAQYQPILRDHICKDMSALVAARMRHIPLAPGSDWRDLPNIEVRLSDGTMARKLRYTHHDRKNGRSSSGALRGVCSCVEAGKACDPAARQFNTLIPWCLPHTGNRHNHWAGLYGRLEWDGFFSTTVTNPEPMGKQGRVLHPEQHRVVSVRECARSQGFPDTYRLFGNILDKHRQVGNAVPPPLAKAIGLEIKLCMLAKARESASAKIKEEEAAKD

| Structure (SMILES) | IC50 [µM] |
| --- | --- |
| CCOC1=CC(=Cc2c(-c3ccccc3)[nH]n(-c3nc(-c4ccc(Br)cc4)cs3)c2=O)C=CC1=O | 4.35 |
| O=C1N=c2ccccc2=C1NNc1ccc(F)cc1 | 19.3 |
| CCOc1ccc(CN=Nc2ccc(S(=O)(=O)Nc3ccccc3C(=O)O)cc2[N+](=O)[O-])cc1 | 5.78 |
| CCCCn1c(NC(=S)Nc2ccccc2)nc2ccccc21 | 1.02 |
| C=CCOc1ccc(CN=Nc2ccc(S(=O)(=O)Nc3ccccc3C(=O)O)cc2[N+](=O)[O-])cc1OC [2-[[4-[2-[(3-methoxy-4-prop-2-enoxy-phenyl)methylidene]hydrazinyl]-3-nitro-phenyl]sulfonylamino]benzoic acid] | 5.32 |
| COc1cc(NS(=O)(=O)c2ccc(NC(=S)NC(=O)c3sc4ccccc4c3Cl)cc2)nc(OC)n1 [3-chloranyl-N-[[4-[(2,6-dimethoxypyrimidin-4-yl)sulfamoyl]phenyl]carbamothioyl]-1-benzothiophene-2-carboxamide] | 41 |
| NC(=NNC=c1ccc(=C2C=CC(=O)C(C(=O)O)=C2)o1)N[N+](=O)[O-] [5-(5-{2-[amino(nitroimino)methyl]carbonohydrazonoyl}-2-furyl)-2-hydroxybenzoic acid] | 3.94 |
| Cc1[nH]n(-c2ccccc2)c(=O)c1C=C1NC(=S)NC1=O [5-methyl-4-[(Z)-(5-oxo-2-sulfanylideneimidazolidin-4-ylidene)methyl]-2-phenyl-4H-pyrazol-3-one] | 8.39 |
| CC=CC=CC(=O)C1C(=O)[C@]2(C)C(=O)C(C)(O)[C@H]1[C@H]([C@]1(C)OC(=O)C(C)C1=O)[C@H]2C(=O)C=CC=CC (stereo partly drawn) [(1S,4R,6E,7S,8R)-8-[(2E,4E)-hexa-2,4-dienoyl]-2-hydroxy-7-[(2S)-5-hydroxy-2,4-dimethyl-3-oxofuran-2-yl]-6-[(2E,4E)-1-hydroxyhexa-2,4-dienylidene]-2,4-dimethylbicyclo[2.2.2]octane-3,5-dione] | 5.25 |
| COc1ccccc1N1CC=[N+](N[CH-]c2ccc(Cl)c([N+](=O)[O-])c2)CC1 [(E)-1-(4-chloro-3-nitrophenyl)-N-[4-(2-methoxyphenyl)piperazin-1-yl]methanimine] | > 99 |

Continued, values first:

| IC50 [µM] | Structure (SMILES) |
| --- | --- |
| > 99 | Cc1ccc(C(=O)N[n+]2cc(O)[c-](-c3nc(-c4cccc([N+](=O)[O-])c4)cs3)c2N)cc1 [MLS000391743] |
| > 99 | CCN(CC)CCOc1ccc2c(c1)C(N=O)c1cc(OCCN(CC)CC)ccc1-2 [MLS000518859] |
| 3.25 | O=C(/C=C/c1ccco1)NCC(=O)NNC1=c2ccccc2=NC1=O [MLS001075666] |
| 3.26 | CSc1ccc(CN=Nc2ccc(S(=O)(=O)Nc3ccccc3C(=O)O)cc2[N+](=O)[O-])cc1 [MLS002245633] |
| 4.35 | COc1ccc(OC)c(-n2c(O)c3o[nH]c(-c4ccccc4Cl)c-3c2=O)c1 [SMR000046218] |
| 1.18 | C=c1[nH]n(-c2cccc(C(=O)O)c2)c(=O)c1=CC=Cc1ccco1 [SMR000113614] |
| 2.86 | COc1ccc(C=c2c(=CSc3ccc(Cl)cc3)[nH]n(-c3nc4ccccc4s3)c2=O)cc1 [SMR000193462] |
| 7.65 | NS(=O)(=O)c1ccc(NN=C2C=CC(=O)NC2=O)cc1 [SMR000528591] |
| 8.51 | O=C(CSc1nc(O)cc(=O)[nH]1)Nc1ccccc1[N+](=O)[O-] [SMR000620617] |
